Some test systems named below: SF-268 CNS; NCI-H522 lung; LOX IMVI melanoma; RPMI-8226 leukemia; K-562 leukemia; MALME-3M melanoma; OVCAR-5 ovarian; HCC-2998 colon; NCI/ADR-RES ovarian; SR leukemia; MDA-MB-435; NCI-H226 lung; KM12 colon.
Holding throughout (assay): inhibition of tumour cell growth, NCI panel, 48 h

Molecules are shown by their SMILES.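 Five compound concentrations were applied to cells in 96-well plates for 48 hours; endpoints were derived by simple linear interpolation of the resulting dose-response curve. The concentration for full growth arrest is given as TGI.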

As for `COc1cc(OC)cc(Oc2nc3ccccc3nc2C(F)(F)F)c1`, the TGI in the experiment on SF-268 CNS, in the experiment on NCI-H522 lung, with LOX IMVI melanoma, in the experiment with RPMI-8226 leukemia, in the experiment on K-562 leukemia and with MALME-3M melanoma was over 100 µM in each case. Also, the TGI in the experiment with OVCAR-5 ovarian, with HCC-2998 colon, in the experiment with NCI/ADR-RES ovarian, with SR leukemia, in the experiment with MDA-MB-435 and in the experiment on NCI-H226 lung was over 100 µM each time. Also, in the experiment on KM12 colon, the TGI is over 100 µM.
Take `[N-]=[N+]=Nc1c([N+](=O)[O-])c(=O)n(-c2ccccc2)c2ccccc12`: the TGI in the experiment on SF-268 CNS is 59.6 µM; in the experiment on NCI-H522 lung, over 100 µM; in the experiment on LOX IMVI melanoma, 43.9 µM; in the experiment with RPMI-8226 leukemia it was 56.2 µM; in the experiment on K-562 leukemia, 64.8 µM; with MALME-3M melanoma, 35 µM. Moreover, the TGI in the experiment with OVCAR-5 ovarian was over 100 µM; in the experiment on HCC-2998 colon, over 100 µM; in the experiment with NCI/ADR-RES ovarian it was 79.7 µM; with SR leukemia, 82.6 µM; with MDA-MB-435 it was 47 µM; in the experiment with NCI-H226 lung, 96.9 µM. In addition, in the experiment on KM12 colon, the TGI is over 100 µM.
For `CN1CCc2c([nH]c3ccccc23)C1`, the TGI was over 100 µM with SF-268 CNS; over 100 µM with NCI-H522 lung; over 100 µM in the experiment on LOX IMVI melanoma; over 100 µM in the experiment on RPMI-8226 leukemia; over 100 µM in the experiment on K-562 leukemia; 86.8 µM in the experiment with MALME-3M melanoma. For the same compound, the TGI in the experiment on OVCAR-5 ovarian, in the experiment on HCC-2998 colon, in the experiment on NCI/ADR-RES ovarian, with SR leukemia, in the experiment on MDA-MB-435 and in the experiment on NCI-H226 lung was over 100 µM throughout. In addition, in the experiment with KM12 colon, the TGI is over 100 µM.
As for `Brc1ccc2[nH]cc(-c3csc(-c4c[nH]c5ccccc45)n3)c2c1`, the TGI with SF-268 CNS is 8.91 µM; in the experiment with NCI-H522 lung it was 3.53 µM; in the experiment on LOX IMVI melanoma, 4.5 µM; in the experiment on RPMI-8226 leukemia, 12.1 µM; in the experiment with K-562 leukemia, over 20.8 µM; in the experiment on MALME-3M melanoma, 8.21 µM. For the same compound, the TGI with OVCAR-5 ovarian came out at 4.86 µM; in the experiment on HCC-2998 colon, 3.96 µM; with NCI/ADR-RES ovarian it was 10.5 µM; in the experiment with SR leukemia it was 10.4 µM; in the experiment with MDA-MB-435, 15.7 µM; in the experiment with NCI-H226 lung, 4.56 µM. Further, in the experiment on KM12 colon, the TGI was found to be 5.69 µM.
With `CCn1c(-c2ccccc2)cs/c1=N\C(P(=O)(O)O)P(=O)(O)O`, the TGI in the experiment on SF-268 CNS, in the experiment on NCI-H522 lung, in the experiment on LOX IMVI melanoma, with RPMI-8226 leukemia, with K-562 leukemia and in the experiment on MALME-3M melanoma was over 100 µM throughout. The TGI with OVCAR-5 ovarian, in the experiment on HCC-2998 colon, with NCI/ADR-RES ovarian, with SR leukemia, in the experiment with MDA-MB-435 and in the experiment with NCI-H226 lung was over 100 µM each time. In addition, the TGI in the experiment with KM12 colon was over 100 µM.
Regarding `CC1=C(C)CC2C(=O)N(c3cc(C(C)(C)C)ccc3C(C)(C)C)C(=O)C2C1` (centres undefined), the TGI is 24.6 µM in the experiment with SF-268 CNS; 23.9 µM with NCI-H522 lung; over 100 µM with LOX IMVI melanoma; over 100 µM in the experiment on RPMI-8226 leukemia; over 100 µM with K-562 leukemia; 16.4 µM in the experiment with MALME-3M melanoma. The TGI in the experiment with OVCAR-5 ovarian, in the experiment with HCC-2998 colon, in the experiment with NCI/ADR-RES ovarian, in the experiment on SR leukemia, in the experiment on MDA-MB-435 and in the experiment on NCI-H226 lung was over 100 µM throughout. Also, the TGI in the experiment on KM12 colon was over 100 µM.
For the compound `O=[N+]([O-])c1ccc2[nH]c(=S)[nH]c(=S)c2c1`, the TGI in the experiment on SF-268 CNS, in the experiment with NCI-H522 lung, in the experiment with LOX IMVI melanoma, with RPMI-8226 leukemia, in the experiment on K-562 leukemia and in the experiment on MALME-3M melanoma was over 100 µM each time. The TGI in the experiment with OVCAR-5 ovarian, in the experiment with HCC-2998 colon, with NCI/ADR-RES ovarian, with SR leukemia, with MDA-MB-435 and in the experiment on NCI-H226 lung was over 100 µM throughout. Moreover, the TGI with KM12 colon is over 100 µM.
On to `CO[C@@]12C[C@@H](C)C3=CCC(C)=C3CC1=C(C)C(=O)O2`, for which the TGI in the experiment on SF-268 CNS, in the experiment on LOX IMVI melanoma, in the experiment on RPMI-8226 leukemia, with K-562 leukemia, in the experiment on MALME-3M melanoma and in the experiment with OVCAR-5 ovarian was over 100 µM in each case. Besides, the TGI in the experiment with HCC-2998 colon, with NCI/ADR-RES ovarian, with SR leukemia, in the experiment on MDA-MB-435, in the experiment on NCI-H226 lung and in the experiment on KM12 colon was over 100 µM each time.
`O=C(/C=C/c1ccccc1)Oc1cccc(O)c1`: the TGI is 62.6 µM in the experiment on SF-268 CNS; 29.5 µM in the experiment with NCI-H522 lung; over 100 µM with LOX IMVI melanoma; over 100 µM in the experiment with RPMI-8226 leukemia; over 100 µM in the experiment with MALME-3M melanoma; over 100 µM in the experiment with OVCAR-5 ovarian. Also, the TGI in the experiment on HCC-2998 colon is over 100 µM; with NCI/ADR-RES ovarian, over 100 µM; in the experiment on SR leukemia, 48.6 µM; in the experiment with MDA-MB-435, over 100 µM; with NCI-H226 lung, over 100 µM; in the experiment with KM12 colon it was 46.3 µM.
Turning to `CCOC1(OCC)C2C=CC1C(COS(=O)(=O)c1ccc(C)cc1)C2COS(=O)(=O)c1ccc(C)cc1` (centres undefined), the TGI with SF-268 CNS was over 100 µM; in the experiment with NCI-H522 lung it was 57.1 µM; in the experiment with LOX IMVI melanoma, over 100 µM; with K-562 leukemia, over 100 µM; in the experiment with MALME-3M melanoma it was 77.1 µM; with OVCAR-5 ovarian it was over 100 µM. Besides, the TGI in the experiment on HCC-2998 colon was over 100 µM; in the experiment with NCI/ADR-RES ovarian, over 100 µM; in the experiment with SR leukemia, 58.6 µM; in the experiment with MDA-MB-435, over 100 µM; in the experiment with NCI-H226 lung it was 91.1 µM; in the experiment with KM12 colon it was over 100 µM.
As for `CC(=O)OC(OC(C)=O)c1ccc2ccc3cccc4ccc1c2c34`, the TGI was 91.7 µM with SF-268 CNS; 36 µM with LOX IMVI melanoma; over 100 µM in the experiment with RPMI-8226 leukemia; 96.2 µM in the experiment on K-562 leukemia; 54.7 µM with MALME-3M melanoma; 41.8 µM in the experiment with OVCAR-5 ovarian. For the same compound, the TGI with HCC-2998 colon is 24.5 µM; in the experiment on NCI/ADR-RES ovarian, over 100 µM; in the experiment on SR leukemia, over 100 µM; with MDA-MB-435, 37.9 µM; in the experiment with NCI-H226 lung it was 8.43 µM; with KM12 colon, over 100 µM.

The record behind these values is PubChem BioAssay (NCI).
